# Data: US12180193B2, “Accelerating fibrosarcoma protein degrading compounds and associated methods of use” (Arvinas Operations, Inc., priority 2020, dated 2024)
# Columns and labels:
# [1] = biological target: T1, BRAF V600E (Homo sapiens, UniProt P15056, V600E); assay: Cellular assay of target protein degradation, T-Rex 293 cells stably transfected with HA-BRAF_V600E (HA immunofluorescence, high content imaging); assay type: cell-based; settings: T-Rex 293 HA-BRAF V600E; for DC50: half maximal degradation, read-out: BRaf V600E DC50; for Dmax: maximum degradation observed
# T1 construct: expressed in transfected cells
# T1 sequence (P15056 whole entry V600E): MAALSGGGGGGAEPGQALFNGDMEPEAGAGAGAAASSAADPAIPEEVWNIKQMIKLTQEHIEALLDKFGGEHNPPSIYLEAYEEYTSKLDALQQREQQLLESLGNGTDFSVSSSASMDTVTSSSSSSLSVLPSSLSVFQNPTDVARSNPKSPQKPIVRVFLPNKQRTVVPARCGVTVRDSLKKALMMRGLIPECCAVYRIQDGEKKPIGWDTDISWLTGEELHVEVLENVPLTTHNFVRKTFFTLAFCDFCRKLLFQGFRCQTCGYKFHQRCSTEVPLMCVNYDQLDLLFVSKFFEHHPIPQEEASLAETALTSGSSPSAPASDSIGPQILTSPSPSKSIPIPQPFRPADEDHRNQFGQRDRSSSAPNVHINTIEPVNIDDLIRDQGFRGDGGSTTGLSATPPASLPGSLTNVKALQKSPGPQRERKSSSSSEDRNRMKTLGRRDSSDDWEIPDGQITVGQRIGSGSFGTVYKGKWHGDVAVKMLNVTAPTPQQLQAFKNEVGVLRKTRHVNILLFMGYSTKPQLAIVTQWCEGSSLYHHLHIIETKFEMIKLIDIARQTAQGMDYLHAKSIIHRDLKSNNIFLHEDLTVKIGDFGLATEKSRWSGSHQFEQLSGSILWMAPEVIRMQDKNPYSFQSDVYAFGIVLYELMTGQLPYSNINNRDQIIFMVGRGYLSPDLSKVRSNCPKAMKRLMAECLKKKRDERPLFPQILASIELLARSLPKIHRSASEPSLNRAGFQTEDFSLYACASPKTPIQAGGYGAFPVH
# In short: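 Read-out is anti-HA immunofluorescence quantified by high-content imaging, giving half-maximal degradation concentration (DC50) and maximum degradation (Dmax, percent of control). Cells expressed the construct under 1 ng/mL doxycycline and received compound (1 μM to 0.1 nM final, 0.1% DMSO) for 24 h at 37 °C.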
# [2] = biological target: T2, BRAF G466V (Homo sapiens, UniProt P15056, G466V); assay: Cellular assay of target protein degradation, T-Rex 293 cells stably transfected with HA-BRAF G466V (HA immunofluorescence, high content imaging); assay type: cell-based; settings: T-Rex 293 HA-BRAF G466V; for DC50: half maximal degradation, read-out: BRaf G466V DC50; for Dmax: maximum degradation observed
# T2 construct: expressed in transfected cells
# T2 sequence (P15056 whole entry G466V): as the sequence (P15056 whole entry V600E) above, with G466V, E600V counted along it
# In short: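 First, stably transfected T-Rex 293 cells were plated with 0.75 ng/mL doxycycline and grown for 24 hours. Next, compound (final 30 nM to 3 pM, 0.1% DMSO) was added for another 24 hours at 37° C. Finally, cells were fixed, stained for HA and imaged.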
DC50 [1] [nM],Dmax [1] [%],DC50 [2] [nM],Dmax [2] [%],Compound
5 to 50,< 35,1 to 10,35 to 70,"O=C1CC[C@@H](NC(=O)c2cc(C3CCN(CC4CCN(c5ccc(-c6cnc7[nH]cc(C(=O)c8c(F)ccc(NS(=O)(=O)N9CC[C@@H](F)C9)c8F)c7c6)cc5)CC4)CC3)ccc2F)C(=O)N1 [Compound 197, 5-(1-{[1-(4-{3-[2,6-difluoro-3-({[(3R)-3-fluoropyrrolidin-1-yl]sulfonyl}amino)benzoyl]-1H-pyrrolo[2,3-b]pyridin-5-yl}phenyl)piperidin-4-yl]methyl}piperidin-4-yl)-N-[(3R)-2,6-dioxopiperidin-3-yl]-2-fluorobenzamide]"
5 to 50,< 35,1 to 10,35 to 70,"O=C1CC[C@H](N2Cc3cc(N4CCC(CN5CCN(C6(c7ncc(-c8cnc9[nH]cc(C(=O)c%10c(F)ccc(NS(=O)(=O)N%11CC[C@@H](F)C%11)c%10F)c9c8)cn7)CC6)CC5)CC4)ccc3C2=O)C(=O)N1 [Compound 201, (3R)-N-[3-[5-[2-[1-[4-[[1-[2-[(3S)-2,6-dioxo-3-piperidyl]-1-oxo-isoindolin-5-yl]-4-piperidyl]methyl]piperazin-1-yl]cyclopropyl]pyrimidin-5-yl]-1H-pyrrolo[2,3-b]pyridine-3-carbonyl]-2,4-difluoro-phenyl]-3-fluoro-pyrrolidine-1-sulfonamide]"
50 to 500,35 to 70,1 to 10,35 to 70,"O=C1CC[C@H](N2Cc3cc(N4CC(CN5CCN(C6(c7ncc(-c8cnc9[nH]cc(C(=O)c%10c(F)ccc(NS(=O)(=O)N%11CC[C@@H](F)C%11)c%10F)c9c8)cn7)CC6)CC5)C4)ccc3C2=O)C(=O)N1 [Compound 202, (3R)-N-(3-{5-[2-(1-{4-[(1-{2-[(3S)-2,6-dioxopiperidin-3-yl]-1-oxo-2,3-dihydro-1H-isoindol-5-yl}azetidin-3-yl)methyl]piperazin-1-yl}cyclopropyl)pyrimidin-5-yl]-1H-pyrrolo[2,3-b]pyridine-3-carbonyl}-2,4-difluorophenyl)-3-fluoropyrrolidine-1-sulfonamide]"
< 5,35 to 70,< 1,35 to 70,"CC(C)CS(=O)(=O)Nc1ccc(F)c(C(=O)c2c[nH]c3ncc(-c4ccc(N5CCC(CN6CCC(c7ccc8c(c7)CN([C@H]7CCC(=O)NC7=O)C8=O)CC6)CC5)cc4)cc23)c1F [Compound 204, N-{3-[5-(4-{4-[(4-{2-[(3S)-2,6-dioxopiperidin-3-yl]-1-oxo-2,3-dihydro-1H-isoindol-5-yl}piperidin-1-yl)methyl]piperidin-1-yl}phenyl)-1H-pyrrolo[2,3-b]pyridine-3-carbonyl]-2,4-difluorophenyl}-2-methylpropane-1-sulfonamide]"
5 to 50,35 to 70,< 1,35 to 70,"O=C1CC[C@H](N2Cc3cc(C4CCN(CC5CCN(c6ccc(-c7cnc8[nH]cc(C(=O)c9c(F)ccc(NS(=O)(=O)CC%10CC%10)c9F)c8c7)cc6)CC5)CC4)ccc3C2=O)C(=O)N1 [Compound 206, 1-cyclopropyl-N-{3-[5-(4-{4-[(4-{2-[(3S)-2,6-dioxopiperidin-3-yl]-1-oxo-2,3-dihydro-1H-isoindol-5-yl}piperidin-1-yl)methyl]piperidin-1-yl}phenyl)-1H-pyrrolo[2,3-b]pyridine-3-carbonyl]-2,4-difluorophenyl}methanesulfonamide]"
5 to 50,35 to 70,< 1,35 to 70,"COc1c(NS(=O)(=O)N2CC[C@@H](F)C2)ccc(F)c1C(=O)c1c[nH]c2ncc(-c3ccc(N4CCC(CN5CCC(c6ccc7c(c6)CN([C@H]6CCC(=O)NC6=O)C7=O)CC5)CC4)cc3)cc12 [Compound 207, (3R)—N-{3-[5-(4-{4-[(4-{2-[(3S)-2,6-dioxopiperidin-3-yl]-1-oxo-2,3-dihydro-1H-isoindol-5-yl}piperidin-1-yl)methyl]piperidin-1-yl}phenyl)-1H-pyrrolo[2,3-b]pyridine-3-carbonyl]-4-fluoro-2-methoxyphenyl}-3-fluoropyrrolidine-1-sulfonamide]"
5 to 50,< 35,1 to 10,35 to 70,"O=C1CCC(N2Cc3cc(N4CC(CN5CCN(C6CCN(c7ccc(-c8cnc9[nH]cc(C(=O)c%10c(F)ccc(NS(=O)(=O)N%11CC[C@@H](F)C%11)c%10F)c9c8)cc7)CC6)CC5)C4)ccc3C2=O)C(=O)N1 (stereo partly drawn) [Compound 209, (3R)—N-{3-[5-(4-{4-[4-({1-[2-(2,6-dioxopiperidin-3-yl)-1-oxo-2,3-dihydro-1H-isoindol-5-yl]azetidin-3-yl}methyl)piperazin-1-yl]piperidin-1-yl}phenyl)-1H-pyrrolo[2,3-b]pyridine-3-carbonyl]-2,4-difluorophenyl}-3-fluoropyrrolidine-1-sulfonamide]"
5 to 50,35 to 70,1 to 10,> 70,"CNc1cc(-c2cnc3[nH]cc(C(=O)c4c(F)ccc(NS(=O)(=O)N5CC[C@@H](F)C5)c4F)c3c2)ccc1N1CCC(CN2CCC(c3ccc4c(c3)CN([C@H]3CCC(=O)NC3=O)C4=O)CC2)CC1 [Compound 210, (3R)—N-{3-[5-(4-{4-[(4-{2-[(3S)-2,6-dioxopiperidin-3-yl]-1-oxo-2,3-dihydro-1H-isoindol-5-yl}piperidin-1-yl)methyl]piperidin-1-yl}-3-(methylamino)phenyl)-1H-pyrrolo[2,3-b]pyridine-3-carbonyl]-2,4-difluorophenyl}-3-fluoropyrrolidine-1-sulfonamide]"

# More lines, now with the values behind:
Compound,DC50 [1] [nM],Dmax [1] [%],DC50 [2] [nM],Dmax [2] [%]
"O=C1CCC(N2Cc3cc(C4CCN(CC5CN(c6ccc(-c7cnc8[nH]cc(C(=O)c9c(F)ccc(NS(=O)(=O)N%10CC[C@@H](F)C%10)c9F)c8c7)cc6)C5)CC4)ccc3C2=O)C(=O)N1 (stereo partly drawn) [Compound 198, (3R)-N-[3-(5-{4-[3-({4-[2-(2,6-dioxopiperidin-3-yl)-1-oxo-2,3-dihydro-1H-isoindol-5-yl]piperidin-1-yl}methyl)azetidin-1-yl]phenyl}-1H-pyrrolo[2,3-b]pyridine-3-carbonyl)-2,4-difluorophenyl]-3-fluoropyrrolidine-1-sulfonamide]",5 to 50,< 35,1 to 10,> 70
"O=C1CCN(c2ccc(C3CCN(CCC4CCN(c5ccc(-c6cnc7[nH]cc(C(=O)c8c(F)ccc(NS(=O)(=O)N9CC[C@@H](F)C9)c8F)c7c6)cc5)CC4)CC3)cc2F)C(=O)N1 [Compound 199, (3R)-N-[3-(5-[4-[4-(2-[4-[4-(2,4-dioxo-1,3-diazinan-1-yl)-3-fluorophenyl]piperidin-1-yl]ethyl)piperidin-1-yl]phenyl]-1H-pyrrolo[2,3-b]pyridine-3-carbonyl)-2,4-difluorophenyl]-3-fluoropyrrolidine-1-sulfonamide]",5 to 50,35 to 70,1 to 10,35 to 70
"O=C1CCC(N2Cc3cc(N4CC(CN5CCN(C6(c7ccc(-c8cnc9[nH]cc(C(=O)c%10c(F)ccc(NS(=O)(=O)N%11CC[C@@H](F)C%11)c%10F)c9c8)cc7)CC6)CC5)C4)ccc3C2=O)C(=O)N1 (stereo partly drawn) [Compound 200, (3R)-N-{3-[5-(4-{1-[4-({1-[2-(2,6-dioxopiperidin-3-yl)-1-oxo-2,3-dihydro-1H-isoindol-5-yl]azetidin-3-yl}methyl)piperazin-1-yl]cyclopropyl}phenyl)-1H-pyrrolo[2,3-b]pyridine-3-carbonyl]-2,4-difluorophenyl}-3-fluoropyrrolidine-1-sulfonamide]",50 to 500,35 to 70,1 to 10,35 to 70
"CCc1c(NS(=O)(=O)N2CC[C@@H](F)C2)ccc(F)c1C(=O)c1c[nH]c2ncc(-c3ccc(N4CCC(CN5CCC(c6ccc7c(c6)CN([C@H]6CCC(=O)NC6=O)C7=O)CC5)CC4)cc3)cc12 [Compound 203, (3R)—N-{3-[5-(4-{4-[(4-{2-[(3S)-2,6-dioxopiperidin-3-yl]-1-oxo-2,3-dihydro-1H-isoindol-5-yl}piperidin-1-yl)methyl]piperidin-1-yl}phenyl)-1H-pyrrolo[2,3-b]pyridine-3-carbonyl]-2-ethyl-4-fluorophenyl}-3-fluoropyrrolidine-1-sulfonamide]",< 5,35 to 70,< 1,35 to 70
"N#Cc1cc(-c2cnc3[nH]cc(C(=O)c4c(F)ccc(NS(=O)(=O)N5CC[C@@H](F)C5)c4F)c3c2)ccc1N1CCC(CN2CCC(c3ccc4c(c3)CN([C@H]3CCC(=O)NC3=O)C4=O)CC2)CC1 [Compound 205, (3R)—N-{3-[5-(3-cyano-4-{4-[(4-{2-[(3S)-2,6-dioxopiperidin-3-yl]-1-oxo-2,3-dihydro-1H-isoindol-5-yl}piperidin-1-yl)methyl]piperidin-1-yl}phenyl)-1H-pyrrolo[2,3-b]pyridine-3-carbonyl]-2,4-difluorophenyl}-3-fluoropyrrolidine-1-sulfonamide]",5 to 50,35 to 70,< 1,35 to 70
"CC(C)N(C)S(=O)(=O)Nc1ccc(F)c(C(=O)c2c[nH]c3ncc(-c4ccc(N5CCC(CN6CCC(c7ccc8c(c7)CN([C@H]7CCC(=O)NC7=O)C8=O)CC6)CC5)cc4)cc23)c1F [Compound 208, (3S)-3-(5-{1-[(1-{4-[3-(2,6-difluoro-3-{[methyl(propan-2-yl)sulfamoyl]amino}benzoyl)-1H-pyrrolo[2,3-b]pyridin-5-yl]phenyl}piperidin-4-yl)methyl]piperidin-4-yl}-1-oxo-2,3-dihydro-1H-isoindol-2-yl)piperidine-2,6-dione]",5 to 50,35 to 70,< 1,35 to 70
